Among the data in US9902696B2, “1,4-substituted piperidine derivatives” (Cephalon, Inc., priority 2015, dated 2018) are IC50 values, retold here.

T1 sequence (P49327 whole entry): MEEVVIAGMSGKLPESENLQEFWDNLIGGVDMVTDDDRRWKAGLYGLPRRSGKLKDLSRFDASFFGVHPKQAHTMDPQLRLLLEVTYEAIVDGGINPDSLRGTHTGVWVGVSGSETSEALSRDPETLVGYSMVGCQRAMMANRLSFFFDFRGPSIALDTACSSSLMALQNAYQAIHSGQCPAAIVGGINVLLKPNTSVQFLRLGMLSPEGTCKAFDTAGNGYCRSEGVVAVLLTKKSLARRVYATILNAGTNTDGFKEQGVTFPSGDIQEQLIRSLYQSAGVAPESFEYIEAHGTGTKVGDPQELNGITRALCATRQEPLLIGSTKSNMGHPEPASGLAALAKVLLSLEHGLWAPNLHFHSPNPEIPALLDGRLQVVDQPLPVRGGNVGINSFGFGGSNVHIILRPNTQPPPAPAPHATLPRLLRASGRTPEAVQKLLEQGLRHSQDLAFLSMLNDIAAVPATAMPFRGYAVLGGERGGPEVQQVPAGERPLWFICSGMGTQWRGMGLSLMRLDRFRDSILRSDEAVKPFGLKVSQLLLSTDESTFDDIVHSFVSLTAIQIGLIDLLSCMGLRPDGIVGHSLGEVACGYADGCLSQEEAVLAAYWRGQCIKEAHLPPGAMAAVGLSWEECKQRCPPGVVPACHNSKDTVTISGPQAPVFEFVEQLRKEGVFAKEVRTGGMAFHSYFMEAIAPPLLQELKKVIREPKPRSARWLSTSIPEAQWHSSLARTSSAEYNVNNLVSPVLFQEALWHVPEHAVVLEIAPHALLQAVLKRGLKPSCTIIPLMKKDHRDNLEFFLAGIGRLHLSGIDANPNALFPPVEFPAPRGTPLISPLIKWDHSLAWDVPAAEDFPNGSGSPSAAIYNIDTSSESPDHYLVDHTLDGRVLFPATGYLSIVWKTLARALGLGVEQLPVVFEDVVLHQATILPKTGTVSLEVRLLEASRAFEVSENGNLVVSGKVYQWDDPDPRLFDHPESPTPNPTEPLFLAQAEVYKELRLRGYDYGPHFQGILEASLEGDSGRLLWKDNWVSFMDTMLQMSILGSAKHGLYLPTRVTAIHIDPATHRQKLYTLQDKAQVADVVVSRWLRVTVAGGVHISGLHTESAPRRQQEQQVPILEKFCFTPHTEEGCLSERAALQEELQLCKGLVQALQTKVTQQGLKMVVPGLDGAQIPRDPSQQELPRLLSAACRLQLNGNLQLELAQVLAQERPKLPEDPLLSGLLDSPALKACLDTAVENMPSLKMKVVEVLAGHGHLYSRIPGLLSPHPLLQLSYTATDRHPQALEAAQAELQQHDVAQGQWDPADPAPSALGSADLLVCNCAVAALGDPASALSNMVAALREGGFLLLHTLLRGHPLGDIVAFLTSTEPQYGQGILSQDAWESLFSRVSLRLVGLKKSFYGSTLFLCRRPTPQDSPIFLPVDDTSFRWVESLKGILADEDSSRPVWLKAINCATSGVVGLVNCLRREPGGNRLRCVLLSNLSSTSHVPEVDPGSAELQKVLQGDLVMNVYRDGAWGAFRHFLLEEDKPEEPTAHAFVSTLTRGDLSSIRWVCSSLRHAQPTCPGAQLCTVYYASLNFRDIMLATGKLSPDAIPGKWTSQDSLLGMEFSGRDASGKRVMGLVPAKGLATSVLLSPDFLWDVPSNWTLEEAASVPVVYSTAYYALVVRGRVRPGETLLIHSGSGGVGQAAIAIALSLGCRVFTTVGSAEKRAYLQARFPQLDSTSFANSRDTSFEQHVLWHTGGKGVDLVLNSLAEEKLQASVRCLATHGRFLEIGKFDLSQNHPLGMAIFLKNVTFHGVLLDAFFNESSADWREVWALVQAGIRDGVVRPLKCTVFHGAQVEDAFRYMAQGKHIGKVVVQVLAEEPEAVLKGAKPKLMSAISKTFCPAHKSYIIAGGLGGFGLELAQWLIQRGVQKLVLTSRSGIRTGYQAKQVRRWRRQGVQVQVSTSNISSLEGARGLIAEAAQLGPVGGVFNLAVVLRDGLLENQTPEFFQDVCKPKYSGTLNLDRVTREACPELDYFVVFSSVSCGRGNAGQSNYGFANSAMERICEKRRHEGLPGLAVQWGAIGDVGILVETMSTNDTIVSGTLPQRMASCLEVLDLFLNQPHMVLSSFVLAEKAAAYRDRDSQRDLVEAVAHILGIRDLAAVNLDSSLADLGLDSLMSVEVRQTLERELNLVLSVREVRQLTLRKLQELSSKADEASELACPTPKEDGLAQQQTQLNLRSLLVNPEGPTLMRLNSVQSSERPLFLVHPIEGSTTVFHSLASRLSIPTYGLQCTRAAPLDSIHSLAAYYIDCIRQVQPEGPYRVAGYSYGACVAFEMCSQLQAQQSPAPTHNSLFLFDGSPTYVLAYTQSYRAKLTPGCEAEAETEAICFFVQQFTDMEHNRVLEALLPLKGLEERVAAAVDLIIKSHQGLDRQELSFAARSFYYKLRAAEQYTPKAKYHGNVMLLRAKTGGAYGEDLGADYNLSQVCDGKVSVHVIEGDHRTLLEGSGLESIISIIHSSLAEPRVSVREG

The experiment addresses T1, recombinant human baculovirus-expressed GST-tagged FASN (Homo sapiens, UniProt P49327).
T1 construct: GST
The experiment can be described thus: FASN enzyme activity assay, fluorescence-based detection of CoA with CPM. Type of experiment: biochemical. To be noted: 5 nM FASN, 150 μM NADPH, 10 μM acetyl-CoA, 25 μM malonyl-CoA, 90 minutes incubation; read-out: IC50 data for Compounds of Formulae I-V/V(a): Activity. The procedure, abridged:
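Human GST-tagged FASN, baculovirus-expressed (5 nM), in 50 mM HEPES pH 7.5 with 150 μM NADPH, 10 μM acetyl-CoA, 25 μM malonyl-CoA, 0.5% DMSO; malonyl-CoA-started, 90 min. Released CoA detected with CPM (50 μM dilution), 30 min, fluorescence ex 390/em 530. IC50 from variable-slope sigmoidal fit of % inhibition versus log concentration.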
Consider `CCC(=O)N1CCC(Oc2ccc(-c3cnc4ccccc4c3N(C)C)cc2)CC1` [Example 232, 1-{4-[4-(4-Dimethylaminoquinolin-3-yl)-phenoxy]-piperidin-1-yl}-propan-1-one], for which the IC50 was in the range of 1000 to 10000 nM.
As for `CN(C)c1c(-c2ccc(OC3CCN(C(=O)[C@H]4CCCO4)CC3)cc2)cnc2ccccc12` [Example 233, {4-[4-(4-Dimethylaminoquinolin-3-yl)-phenoxy]-piperidin-1-yl}-(R)-tetrahydrofuran-2-yl-methanone], the IC50 was in the range of 1000 to 10000 nM.
Regarding `Nc1c(-c2ccc(OC3CCN(C(=O)[C@H]4CCCO4)CC3)cc2)cnc2ccccc12` [Example 234, {4-[4-(4-Aminoquinolin-3-yl)-phenoxy]-piperidin-1-yl}-(R)-tetrahydro-furan-2-yl-methanone], the IC50 was in the range of 100 to 999 nM.
Consider `CCC(=O)N1CCC(Oc2ccc(-c3cnc4ccccc4c3NC)cc2)CC1` [Example 235, 1-{4-[4-(4-Methylaminoquinolin-3-yl)-phenoxy]-piperidin-1-yl}-propan-1-one], for which the IC50 was in the range of 1000 to 10000 nM.
As for `CNc1c(-c2ccc(OC3CCN(C(=O)[C@H]4CCCO4)CC3)cc2)cnc2ccccc12` [Example 236, {4-[4-(4-Methylaminoquinolin-3-yl)-phenoxy]-piperidin-1-yl}-(R)-tetrahydrofuran-2-yl-methanone], the figure is 100 to 999 nM; as for `CCC(=O)N1CCC(Oc2ccc(-c3cnc4ccccc4c3N3CCOCC3)cc2)CC1` [Example 237, 1-{4-[4-(4-Morpholin-4-yl-quinolin-3-yl)-phenoxy]-piperidin-1-yl}-propan-1-one], 1000 to 10000 nM.
For `O=C([C@H]1CCCO1)N1CCC(Oc2ccc(-c3cnc4ccccc4c3N3CCOCC3)cc2)CC1` [Example 238, {4-[4-(4-Morpholin-4-yl-quinolin-3-yl)-phenoxy]-piperidin-1-yl}-(R)-tetrahydrofuran-2-yl-methanone], the IC50 lay in the range of 100 to 999 nM.
On to `CCC(=O)N1CCC(Oc2ccc(-c3cnc4ccccc4c3N3CCN(C)CC3)cc2)CC1` [Example 239, 1-(4-{4-[4-(4-Methylpiperazin-1-yl)-quinolin-3-yl]-phenoxy}-piperidin-1-yl)-propan-1-one], for which the IC50 fell in the range of 1000 to 10000 nM.
For `CN1CCN(c2c(-c3ccc(OC4CCN(C(=O)[C@H]5CCCO5)CC4)cc3)cnc3ccccc23)CC1` [Example 240, (4-{4-[4-(4-Methylpiperazin-1-yl)-quinolin-3-yl]-phenoxy}-piperidin-1-yl)-(R)-tetrahydrofuran-2-yl-methanone], the IC50 was in the range of 1000 to 10000 nM.
`O=C1OCCN1C(=O)N1CCC(Oc2ccc(-c3cnc4ccccc4c3)cc2)CC1` [Example 241, 3-[4-(4-Quinolin-3-yl-phenoxy)-piperidine-1-carbonyl]-oxazolidin-2-one]: the IC50 is 1000 to 10000 nM.
Consider `CC(=O)CC(=O)N1CCC(Oc2ccc(-c3cnc4ccccc4c3)cc2)CC1` [Example 242, 1-[4-(4-Quinolin-3-yl-phenoxy)-piperidin-1-yl]-butane-1,3-dione], for which the IC50 lay within 1000 to 10000 nM.
Turning to `O=C1CCCN1C(=O)N1CCC(Oc2ccc(-c3cnc4ccccc4c3)cc2)CC1` [Example 243, 1-[4-(4-Quinolin-3-yl-phenoxy)-piperidine-1-carbonyl]-pyrrolidin-2-one], the IC50 is 1000 to 10000 nM.
As for `N#Cc1ccc(-c2ccc(OC3CCN(C(=O)[C@H]4CCCO4)CC3)cc2)cc1` [Example 244, 4′-[1-((R)-Tetrahydrofuran-2-carbonyl)-piperidin-4-yloxy]-biphenyl-4-carbonitrile], the IC50 was 1 to 99 nM.
Turning to `CCC(=O)N1CCC(Oc2ccc(-c3cc4ccccc4o3)cc2)CC1` [Example 245, 1-[4-(4-Benzofuran-2-yl-phenoxy)-piperidin-1-yl]-propan-1-one], the IC50 lay in the range of 100 to 999 nM.
For `CCC(=O)N1CCC(Oc2ccc(-c3c[nH]c4ccccc34)cc2)CC1` [Example 246, 1-{4-[4-(1H-Indol-3-yl)-phenoxy]-piperidin-1-yl}-propan-1-one], the IC50 fell in the range of 1000 to 10000 nM.
